{"source": "patent US20250205341A1", "about": "“PROTEIN DELIVERY COMPOSITION CONTAINING BILE SALT AND CATIONIC PEPTIDE AND USE THEREOF” (BION INC., priority 2022, published 2025)", "format_in_all_cases": "in vivo", "key": {"[1]": {"system": "C57BL/6 mice maintaining normal blood glucose levels", "experiment": "Insulin absorption upon oral administration (into the stomach using a zonde), blood glucose lowering", "conditions": "100 mM taurocholate + 2U/kg insulin + 0.1, 1, 10 μM SEQ6 or 1, 10, 100 μM SEQ2; FIG. 2", "description": "Examination was made of the change in insulin absorption upon oral administration of bile salts and/or peptides represented by SEQ ID NOS: 1 to 18. The absorption rate of insulin was indicated by measuring the blood glucose-lowering rate after insulin administration.\nSpecifically, C57BL/6 mice maintaining normal blood glucose levels were prepared, and blood glucose levels were measured using an Accu-Chek glucometer before administering insulin with bile salts and/or cationic peptides. Insulin, along with bile salts and/or cationic peptides, was administered directly into the stomach using a zonde, and blood glucose changes were measured over time."}, "[2]": {"system": "C57BL/6 mice maintaining normal blood glucose levels", "experiment": "Insulin absorption in sublingual mucosal tissue, blood glucose lowering after sublingual administration", "conditions": "sublingual 10 μl; 100 mM taurocholate and/or 1 μM SEQ6 with 2U/kg insulin; FIG. 1", "description": "All cationic peptides used in the experiment were synthesized by AnyGen Co., Ltd. The absorption rate of insulin was indicated by measuring the blood glucose-lowering rate after insulin administration.\nSpecifically, C57BL/6 mice (Orient Bio, Korea) maintaining normal blood glucose levels were anesthetized by intraperitoneal injection of Ketamine/Xylazine (100 mg/kg and 10 mg/kg, respectively) (BK Pharm, Korea). […] Each experimental group received 10 μl of the solution administered to the sublingual mucosa, and blood glucose changes were measured over time."}, "[3]": {"system": "C57BL/6 mice maintaining normal blood glucose levels", "experiment": "Insulin absorption upon topical (skin) application, blood glucose change", "conditions": "50 μl on shaved skin, with mixture of taurocholate and SEQ6; FIG. 8", "source_text": "Examination was made of the change in insulin absorption upon topical application due to bile salts and/or peptides represented by SEQ ID NO: 1 to SEQ ID NO: 18. The absorption rate of insulin was indicated by measuring the blood glucose-lowering rate after insulin administration. Specifically, C57BL/6 mice maintaining normal blood glucose levels were shaved on the back using a depilatory cream the day before the experiment. On the day of the experiment, the mice were anesthetized by intraperitoneal injection of Ketamine/Xylazine (100 mg/kg and 10 mg/kg, respectively). After confirming stable anesthesia, blood glucose levels were measured using an Accu-Chek glucometer before administering insulin with bile salts and/or cationic peptides. A 50 μl volume of the solution was applied to the shaved skin, and blood glucose changes were measured over time."}}, "note": "Non-standard residues stand in square brackets, D forms with d. No end group written: not given here."}
{"substance": "RRRRRR [SEQ2]", "values": [{"measurement": "insulin absorption (blood glucose-lowering effect) upon oral administration", "setting": "[1]", "result": "significantly increases in a dose-dependent manner"}]}
{"substance": "rrrrrr ([dR][dR][dR][dR][dR][dR]) [SEQ6]", "values": [{"measurement": "insulin absorption (blood glucose-lowering effect) upon oral administration", "setting": "[1]", "result": "significantly increases in a dose-dependent manner"}, {"measurement": "blood glucose-lowering rate by insulin (insulin absorption through sublingual mucosal tissue)", "setting": "[2]", "result": "low"}]}
{"substance": "insulin: insulin (Humulin N, Korea Lilly, Korea)", "values": [{"measurement": "blood glucose-lowering effect of insulin upon topical application", "setting": "[3]", "result": "excellent blood glucose-lowering effect"}]}
